Article PMC6704710, “Preclinical evaluation of 3D185, a novel potent inhibitor of FGFR1/2/3 and CSF-1R, in FGFR-dependent and macrophage-dominant cancer models” (Journal of Experimental & Clinical Cancer Research : CR, 2019)

Columns and labels:
Experiment in all cases: Eurofins kinase panel
Assay type in all cases: biochemical
Settings in all cases: read-out: Inhibition rate (%)
MKK7β(h) = target: T1, MKK7β(h) (Homo sapiens, UniProt O14733)
T1 construct: purchased Eurofins (KinaseProfiler)
T1 sequence (O14733 1-419): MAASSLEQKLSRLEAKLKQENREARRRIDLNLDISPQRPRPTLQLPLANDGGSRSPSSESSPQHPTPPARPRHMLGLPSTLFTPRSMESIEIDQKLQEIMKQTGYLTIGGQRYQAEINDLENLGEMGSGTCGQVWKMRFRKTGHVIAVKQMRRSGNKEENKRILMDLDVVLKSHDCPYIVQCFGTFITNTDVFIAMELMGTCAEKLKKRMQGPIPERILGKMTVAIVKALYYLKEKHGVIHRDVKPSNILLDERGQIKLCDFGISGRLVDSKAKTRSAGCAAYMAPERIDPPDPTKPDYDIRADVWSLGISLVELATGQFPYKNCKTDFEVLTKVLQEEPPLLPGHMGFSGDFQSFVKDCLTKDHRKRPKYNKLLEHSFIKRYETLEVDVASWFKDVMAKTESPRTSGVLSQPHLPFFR

NUAK2(h) = target: T2, NUAK2(h) (Homo sapiens, UniProt Q9H093)
T2 construct: purchased Eurofins (KinaseProfiler)
T2 sequence (Q9H093 1-628): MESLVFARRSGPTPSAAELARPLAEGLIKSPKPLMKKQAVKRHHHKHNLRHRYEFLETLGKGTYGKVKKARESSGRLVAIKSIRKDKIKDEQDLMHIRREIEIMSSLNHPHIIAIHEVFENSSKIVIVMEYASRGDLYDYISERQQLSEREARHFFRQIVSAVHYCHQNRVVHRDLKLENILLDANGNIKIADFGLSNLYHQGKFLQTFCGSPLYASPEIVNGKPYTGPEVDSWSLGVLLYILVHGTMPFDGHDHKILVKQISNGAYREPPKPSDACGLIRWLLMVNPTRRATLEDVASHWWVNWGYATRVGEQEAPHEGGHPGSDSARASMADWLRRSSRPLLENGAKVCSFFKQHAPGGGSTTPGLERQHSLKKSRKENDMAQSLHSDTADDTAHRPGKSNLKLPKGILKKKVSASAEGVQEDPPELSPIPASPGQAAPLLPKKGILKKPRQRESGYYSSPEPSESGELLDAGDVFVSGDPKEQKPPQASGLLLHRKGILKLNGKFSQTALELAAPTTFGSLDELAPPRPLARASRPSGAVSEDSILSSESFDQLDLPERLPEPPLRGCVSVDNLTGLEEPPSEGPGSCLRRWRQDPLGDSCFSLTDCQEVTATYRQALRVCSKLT

Syk(h) = target: T3, Syk(h) (Homo sapiens, UniProt P43405)
T3 construct: purchased Eurofins (KinaseProfiler)

NIM1(h) = target: T4, NIM1(h) (Homo sapiens, UniProt Q8IY84)
T4 construct: purchased Eurofins (KinaseProfiler)
T4 sequence (Q8IY84 whole entry): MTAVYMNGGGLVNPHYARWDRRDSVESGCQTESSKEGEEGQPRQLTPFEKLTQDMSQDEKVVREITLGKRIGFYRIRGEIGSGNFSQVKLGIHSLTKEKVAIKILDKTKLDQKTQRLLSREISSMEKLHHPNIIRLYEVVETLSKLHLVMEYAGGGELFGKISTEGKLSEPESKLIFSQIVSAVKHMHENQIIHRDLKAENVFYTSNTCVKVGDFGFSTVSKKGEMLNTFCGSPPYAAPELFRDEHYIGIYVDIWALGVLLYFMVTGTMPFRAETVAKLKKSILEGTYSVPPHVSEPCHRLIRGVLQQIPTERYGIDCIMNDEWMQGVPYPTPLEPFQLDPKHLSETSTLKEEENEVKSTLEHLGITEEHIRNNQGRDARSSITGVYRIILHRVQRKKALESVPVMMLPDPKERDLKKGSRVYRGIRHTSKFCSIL

ATM(h) = target: T5, ATM(h) (Homo sapiens, UniProt Q13315)
T5 construct: purchased Eurofins (KinaseProfiler)

PKBβ(h) = target: T6, PKBβ(h) (Homo sapiens, UniProt P31751)
T6 construct: purchased Eurofins (KinaseProfiler)
T6 sequence (P31751 whole entry): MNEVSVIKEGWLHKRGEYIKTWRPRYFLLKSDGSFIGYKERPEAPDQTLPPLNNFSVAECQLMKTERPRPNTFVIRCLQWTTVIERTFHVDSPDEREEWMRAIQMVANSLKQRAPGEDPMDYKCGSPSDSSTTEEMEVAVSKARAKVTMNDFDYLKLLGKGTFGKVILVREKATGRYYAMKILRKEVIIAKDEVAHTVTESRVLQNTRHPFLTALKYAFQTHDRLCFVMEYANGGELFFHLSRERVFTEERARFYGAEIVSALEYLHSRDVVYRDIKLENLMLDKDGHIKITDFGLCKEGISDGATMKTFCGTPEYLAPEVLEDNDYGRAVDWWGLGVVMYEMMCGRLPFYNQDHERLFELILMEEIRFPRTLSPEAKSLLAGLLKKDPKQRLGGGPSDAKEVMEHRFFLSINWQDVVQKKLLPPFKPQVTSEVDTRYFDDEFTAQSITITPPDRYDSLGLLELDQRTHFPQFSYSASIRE

Lck(h) = target: T7, Lck(h) (Homo sapiens, UniProt P06239)
T7 construct: purchased Eurofins (KinaseProfiler)
T7 sequence (P06239 whole entry): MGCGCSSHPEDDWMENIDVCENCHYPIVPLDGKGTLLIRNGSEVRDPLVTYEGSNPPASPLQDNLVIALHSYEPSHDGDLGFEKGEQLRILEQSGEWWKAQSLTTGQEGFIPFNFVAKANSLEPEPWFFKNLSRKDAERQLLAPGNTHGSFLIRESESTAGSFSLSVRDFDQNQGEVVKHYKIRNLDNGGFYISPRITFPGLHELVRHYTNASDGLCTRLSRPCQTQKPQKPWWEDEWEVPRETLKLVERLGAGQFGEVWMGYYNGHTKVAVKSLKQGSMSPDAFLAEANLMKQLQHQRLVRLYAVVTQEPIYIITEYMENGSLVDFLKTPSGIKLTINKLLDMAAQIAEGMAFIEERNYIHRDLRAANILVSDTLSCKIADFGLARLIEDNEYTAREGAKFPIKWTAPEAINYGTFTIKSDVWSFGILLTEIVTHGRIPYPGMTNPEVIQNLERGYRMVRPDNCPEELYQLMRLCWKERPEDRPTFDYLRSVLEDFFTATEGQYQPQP

IKKβ(h) = target: T8, IKKβ(h) (Homo sapiens, UniProt O14920)
T8 construct: purchased Eurofins (KinaseProfiler)
T8 sequence (O14920 1-756): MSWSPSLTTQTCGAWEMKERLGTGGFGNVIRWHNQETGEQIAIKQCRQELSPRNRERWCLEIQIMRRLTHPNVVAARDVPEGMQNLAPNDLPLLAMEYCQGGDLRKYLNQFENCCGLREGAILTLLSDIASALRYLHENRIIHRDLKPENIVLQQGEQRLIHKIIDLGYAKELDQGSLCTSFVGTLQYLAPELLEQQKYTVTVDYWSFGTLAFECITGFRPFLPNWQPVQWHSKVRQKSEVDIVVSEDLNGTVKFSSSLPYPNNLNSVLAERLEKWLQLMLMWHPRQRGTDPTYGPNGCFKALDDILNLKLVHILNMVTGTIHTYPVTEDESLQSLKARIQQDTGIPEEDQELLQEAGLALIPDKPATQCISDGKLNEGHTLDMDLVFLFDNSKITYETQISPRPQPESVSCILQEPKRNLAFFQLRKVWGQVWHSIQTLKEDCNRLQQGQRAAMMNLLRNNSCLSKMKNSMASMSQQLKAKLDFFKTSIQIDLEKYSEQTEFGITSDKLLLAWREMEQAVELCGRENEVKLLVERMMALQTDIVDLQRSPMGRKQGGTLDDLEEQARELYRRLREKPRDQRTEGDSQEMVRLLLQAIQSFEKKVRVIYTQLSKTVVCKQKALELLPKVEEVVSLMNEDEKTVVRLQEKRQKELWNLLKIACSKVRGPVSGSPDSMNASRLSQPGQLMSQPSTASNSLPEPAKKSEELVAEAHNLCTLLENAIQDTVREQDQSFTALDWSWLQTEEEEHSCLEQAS

Rsk4(h) = target: T9, Rsk4(h) (Homo sapiens, UniProt Q9UK32)
T9 construct: purchased Eurofins (KinaseProfiler)
T9 sequence (Q9UK32 whole entry): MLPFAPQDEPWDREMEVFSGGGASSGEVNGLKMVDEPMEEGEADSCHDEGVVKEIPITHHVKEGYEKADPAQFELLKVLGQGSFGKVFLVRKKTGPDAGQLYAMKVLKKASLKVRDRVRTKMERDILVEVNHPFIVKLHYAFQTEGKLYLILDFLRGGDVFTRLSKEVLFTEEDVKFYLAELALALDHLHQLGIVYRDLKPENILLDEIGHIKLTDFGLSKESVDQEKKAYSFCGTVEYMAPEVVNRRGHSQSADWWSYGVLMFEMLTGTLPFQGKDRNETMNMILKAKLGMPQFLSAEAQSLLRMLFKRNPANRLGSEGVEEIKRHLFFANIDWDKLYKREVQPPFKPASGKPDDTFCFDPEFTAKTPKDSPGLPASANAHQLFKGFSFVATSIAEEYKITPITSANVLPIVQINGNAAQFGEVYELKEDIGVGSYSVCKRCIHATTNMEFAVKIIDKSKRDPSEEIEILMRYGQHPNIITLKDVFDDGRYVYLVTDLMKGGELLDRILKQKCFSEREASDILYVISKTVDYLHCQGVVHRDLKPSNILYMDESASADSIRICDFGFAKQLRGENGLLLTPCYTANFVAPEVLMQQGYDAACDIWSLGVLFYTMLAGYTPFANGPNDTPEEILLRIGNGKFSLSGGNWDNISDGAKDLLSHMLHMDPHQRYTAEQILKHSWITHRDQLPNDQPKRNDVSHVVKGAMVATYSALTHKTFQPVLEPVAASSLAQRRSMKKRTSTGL

LIMK1(h) = target: T10, LIMK1(h) (Homo sapiens, UniProt P53667)
T10 construct: purchased Eurofins (KinaseProfiler)
T10 sequence (P53667 whole entry): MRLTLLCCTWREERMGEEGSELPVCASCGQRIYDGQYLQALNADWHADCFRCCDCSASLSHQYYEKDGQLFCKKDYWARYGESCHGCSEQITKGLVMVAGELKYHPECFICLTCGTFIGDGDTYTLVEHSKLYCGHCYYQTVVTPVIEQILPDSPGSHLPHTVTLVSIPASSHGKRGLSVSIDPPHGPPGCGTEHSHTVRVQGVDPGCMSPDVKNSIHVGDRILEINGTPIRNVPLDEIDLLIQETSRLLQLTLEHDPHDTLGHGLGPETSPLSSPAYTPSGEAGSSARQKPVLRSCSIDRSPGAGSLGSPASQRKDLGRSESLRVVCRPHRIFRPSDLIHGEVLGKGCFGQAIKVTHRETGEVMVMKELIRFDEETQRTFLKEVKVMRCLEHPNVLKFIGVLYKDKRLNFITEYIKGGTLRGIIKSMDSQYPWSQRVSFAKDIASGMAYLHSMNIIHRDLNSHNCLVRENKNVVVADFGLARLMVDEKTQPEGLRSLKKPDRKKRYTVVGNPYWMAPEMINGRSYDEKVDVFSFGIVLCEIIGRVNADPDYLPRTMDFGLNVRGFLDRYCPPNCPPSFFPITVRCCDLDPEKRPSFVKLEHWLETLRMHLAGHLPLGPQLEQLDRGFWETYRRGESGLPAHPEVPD

TLK2(h) = target: T11, TLK2(h) (Homo sapiens, UniProt Q86UE8)
T11 construct: purchased Eurofins (KinaseProfiler)
T11 sequence (Q86UE8 whole entry): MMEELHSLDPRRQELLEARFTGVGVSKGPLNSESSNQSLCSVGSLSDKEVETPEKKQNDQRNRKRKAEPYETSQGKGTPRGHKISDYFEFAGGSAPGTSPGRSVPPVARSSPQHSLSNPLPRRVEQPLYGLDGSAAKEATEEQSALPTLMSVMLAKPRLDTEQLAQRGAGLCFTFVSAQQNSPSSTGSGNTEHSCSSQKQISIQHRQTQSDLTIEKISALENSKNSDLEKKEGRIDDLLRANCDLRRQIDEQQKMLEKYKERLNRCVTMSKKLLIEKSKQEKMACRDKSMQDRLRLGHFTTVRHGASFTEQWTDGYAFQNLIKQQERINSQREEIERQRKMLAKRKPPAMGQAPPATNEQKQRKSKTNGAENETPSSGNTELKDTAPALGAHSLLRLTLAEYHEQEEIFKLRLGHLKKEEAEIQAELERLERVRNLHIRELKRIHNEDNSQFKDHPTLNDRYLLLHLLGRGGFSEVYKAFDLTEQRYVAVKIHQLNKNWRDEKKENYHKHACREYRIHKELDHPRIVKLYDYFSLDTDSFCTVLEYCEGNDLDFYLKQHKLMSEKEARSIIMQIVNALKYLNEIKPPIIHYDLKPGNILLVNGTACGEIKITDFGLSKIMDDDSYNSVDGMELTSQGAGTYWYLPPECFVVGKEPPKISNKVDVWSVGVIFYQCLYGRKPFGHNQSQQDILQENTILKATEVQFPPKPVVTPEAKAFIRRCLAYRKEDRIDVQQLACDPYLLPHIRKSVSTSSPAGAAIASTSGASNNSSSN

SMILES: COc1cc(OC)c(Cl)c(-c2ccc3c(NC(=O)c4ccc(N5CCNC(C)(C)C5)cc4)n[nH]c3n2)c1Cl [3D185]
- inhibition at 0.01 µM (MKK7β(h); 10 nM): 9%
- inhibition at 0.1 µM (MKK7β(h); 100 nM): -2%
- inhibition at 1 µM (MKK7β(h); 1000 nM): 12%
- inhibition at 0.01 µM (NUAK2(h); 10 nM): -1%
- inhibition at 0.1 µM (NUAK2(h); 100 nM): -1%
- inhibition at 1 µM (NUAK2(h); 1000 nM): 0%
- inhibition at 0.01 µM (Syk(h); 10 nM): -3%
- inhibition at 0.1 µM (Syk(h); 100 nM): -5%
- inhibition at 1 µM (Syk(h); 1000 nM): 20%
- inhibition at 0.01 µM (NIM1(h); 10 nM): -9%
- inhibition at 0.1 µM (NIM1(h); 100 nM): 0%
- inhibition at 1 µM (NIM1(h); 1000 nM): 0%
- inhibition at 0.01 µM (ATM(h); 10 nM): -3%
- inhibition at 0.1 µM (ATM(h); 100 nM): -5%
- inhibition at 1 µM (ATM(h); 1000 nM): -5%
- inhibition at 0.01 µM (PKBβ(h); 10 nM): 15%
- inhibition at 0.1 µM (PKBβ(h); 100 nM): 29%
- inhibition at 1 µM (PKBβ(h); 1000 nM): 30%
- inhibition at 0.01 µM (Lck(h); 10 nM): 22%
- inhibition at 0.1 µM (Lck(h); 100 nM): 60%
- inhibition at 1 µM (Lck(h); 1000 nM): 94%
- inhibition at 0.01 µM (IKKβ(h); 10 nM): 0%
- inhibition at 0.1 µM (IKKβ(h); 100 nM): -5%
- inhibition at 1 µM (IKKβ(h); 1000 nM): 15%
- inhibition at 0.01 µM (Rsk4(h); 10 nM): 0%
- inhibition at 0.1 µM (Rsk4(h); 100 nM): 6%
- inhibition at 1 µM (Rsk4(h); 1000 nM): 19%
- inhibition at 0.01 µM (LIMK1(h); 10 nM): 2%
- inhibition at 0.1 µM (LIMK1(h); 100 nM): 8%
- inhibition at 1 µM (LIMK1(h); 1000 nM): 0%
- inhibition at 0.01 µM (TLK2(h); 10 nM): 0%
- inhibition at 0.1 µM (TLK2(h); 100 nM): -1%
- inhibition at 1 µM (TLK2(h); 1000 nM): -1%
